Target: T1, S. arcanum LA2172-ASAT2 (Solanum arcanum, UniProt A0A0U2QQP2)
T1 construct: pET28b, His-tag nickel purified from E. coli BL21 Rosetta
T1 sequence (A0A0U2QQP2 1-446): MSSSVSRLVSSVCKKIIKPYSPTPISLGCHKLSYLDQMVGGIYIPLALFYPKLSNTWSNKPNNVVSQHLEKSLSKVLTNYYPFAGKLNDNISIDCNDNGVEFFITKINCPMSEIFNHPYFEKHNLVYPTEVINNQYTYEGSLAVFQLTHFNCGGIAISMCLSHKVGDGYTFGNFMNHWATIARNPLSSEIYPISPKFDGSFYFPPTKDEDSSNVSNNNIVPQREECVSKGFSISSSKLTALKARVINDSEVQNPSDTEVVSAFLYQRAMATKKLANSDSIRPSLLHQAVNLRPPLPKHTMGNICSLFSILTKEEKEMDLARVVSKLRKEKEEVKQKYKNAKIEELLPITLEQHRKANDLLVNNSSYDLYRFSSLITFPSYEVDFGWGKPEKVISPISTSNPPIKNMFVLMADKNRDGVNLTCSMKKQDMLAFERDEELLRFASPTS
Assay: LC/MS product detection
Type: biochemical
Details: acyl-CoA donor 100 uM; acceptor 50 uM; pH 6.0, 30 C

With `CC(C)CC(=O)O[C@H]1[C@H](O)[C@@H](O)[C@@H](O[C@]2(CO)O[C@H](CO)[C@@H](O)[C@@H]2O)O[C@@H]1CO` [S1:5 (iC5^R4)] the LC/MS product detection was “all characterized ASAT2 proteins in this tomato subclade possessed only F-type enzymatic activities”.

From article PMC5727100, “Evolution of a flipped pathway creates metabolic innovation in tomato trichomes through BAHD enzyme promiscuity” (Nature Communications, 2017)
